Among the data in ChEMBL document CHEMBL1909046, “DrugMatrix in vitro pharmacology data” are IC50 and Ki values, retold here.

pIC50, pKi: −log10 of the molar value.

In one test the target is T1, Adenosine receptor A3 (Homo sapiens, UniProt P0DMS8).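 Note: radioligand binding assay with AB-MECA serving as the labeled ligand; in other assays of this panel Not Active means under 50% inhibition at 10 µM.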
T1 sequence (P0DMS8 whole entry): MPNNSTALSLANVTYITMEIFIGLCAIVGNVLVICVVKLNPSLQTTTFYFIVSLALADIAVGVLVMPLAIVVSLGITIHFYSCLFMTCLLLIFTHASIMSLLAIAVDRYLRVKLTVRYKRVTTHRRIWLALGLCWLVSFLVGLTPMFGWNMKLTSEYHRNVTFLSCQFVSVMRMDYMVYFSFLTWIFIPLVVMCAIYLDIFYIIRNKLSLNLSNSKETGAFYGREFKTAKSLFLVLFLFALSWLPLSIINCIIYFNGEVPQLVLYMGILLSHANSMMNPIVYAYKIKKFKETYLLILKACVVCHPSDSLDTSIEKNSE
The test is classed as cell membranes, CHO-K1, Membrane. Particulars: for IC50: cho-k1.

Test [1] has as its target Platelet-activating factor receptor (Homo sapiens, UniProt P25105). The test is classed as tissue-based. Note: in other assays of this panel Not Active means under 50% inhibition at 10 µM.
In another test the target is Melanocortin receptor 5 (Homo sapiens, UniProt P33032). The test is classed as cell membranes, HEK293, Membrane. The following applies: hek293. Note: in other assays of this panel Not Active means under 50% inhibition at 10 µM.
Chain of Melanocortin receptor 5 (P33032 whole entry): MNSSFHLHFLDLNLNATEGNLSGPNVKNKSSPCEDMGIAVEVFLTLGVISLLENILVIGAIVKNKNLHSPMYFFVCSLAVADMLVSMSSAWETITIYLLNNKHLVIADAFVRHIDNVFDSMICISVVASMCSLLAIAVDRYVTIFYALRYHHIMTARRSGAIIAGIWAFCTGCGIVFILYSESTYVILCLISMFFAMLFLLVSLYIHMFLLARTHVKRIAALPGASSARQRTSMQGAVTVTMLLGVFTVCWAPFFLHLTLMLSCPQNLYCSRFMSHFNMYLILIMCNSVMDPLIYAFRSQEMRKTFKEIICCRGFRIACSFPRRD
Test [2] can be described thus: DRUGMATRIX: Calcium Channel Type L, Phenylalkylamine radioligand binding (ligand: [3H] (-)-Desmethoxyverapamil (D-888)). The test is classed as cell membranes, Rattus norvegicus, Wistar, Brain, Membrane. Particulars: Not Active = under 50% inhibition at 10 µM.
Test [3] in a line: DRUGMATRIX: Platelet-Derived Growth Factor (PDGF) radioligand binding (ligand: [125I] PDGF). The following applies: nih3t3; Not Active = under 50% inhibition at 10 µM. The test is classed as cell-based.
In a further test the target is Cannabinoid receptor 1 (Homo sapiens, UniProt P21554). The test is classed as cell membranes, Chem-1, Membrane. The following applies: chem-1. Note: in other assays of this panel Not Active means under 50% inhibition at 10 µM.
Chain of Cannabinoid receptor 1 (P21554 whole entry): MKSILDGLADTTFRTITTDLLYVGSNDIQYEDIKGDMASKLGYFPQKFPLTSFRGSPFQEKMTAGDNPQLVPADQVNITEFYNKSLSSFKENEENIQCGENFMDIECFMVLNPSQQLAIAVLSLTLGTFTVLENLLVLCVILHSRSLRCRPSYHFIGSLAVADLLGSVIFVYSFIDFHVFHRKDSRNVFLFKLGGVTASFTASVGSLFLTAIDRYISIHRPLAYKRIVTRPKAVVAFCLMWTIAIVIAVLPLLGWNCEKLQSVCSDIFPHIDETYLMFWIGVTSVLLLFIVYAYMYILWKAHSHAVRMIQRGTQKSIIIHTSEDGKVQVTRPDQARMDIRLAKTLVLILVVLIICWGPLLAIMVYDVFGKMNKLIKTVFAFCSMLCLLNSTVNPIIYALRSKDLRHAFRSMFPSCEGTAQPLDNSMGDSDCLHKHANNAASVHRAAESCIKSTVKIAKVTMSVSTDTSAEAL

Chain of Platelet-activating factor receptor (P25105 whole entry): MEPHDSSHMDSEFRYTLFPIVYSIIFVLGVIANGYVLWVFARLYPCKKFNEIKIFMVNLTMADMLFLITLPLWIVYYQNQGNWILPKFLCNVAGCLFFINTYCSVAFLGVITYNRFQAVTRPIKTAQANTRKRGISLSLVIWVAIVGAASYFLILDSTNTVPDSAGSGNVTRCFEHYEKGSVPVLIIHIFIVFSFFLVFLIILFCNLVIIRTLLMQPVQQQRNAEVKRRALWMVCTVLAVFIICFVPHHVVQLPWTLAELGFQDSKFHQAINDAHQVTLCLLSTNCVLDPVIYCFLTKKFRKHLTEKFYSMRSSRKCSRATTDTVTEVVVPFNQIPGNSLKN

In the case of `Oc1ccc(/C=C/c2cc(O)cc(O)c2)cc1` [RESVERATROL], the IC50 entry (against Adenosine receptor A3; in test [1]; on Melanocortin receptor 5; in test [2]; in test [3]; against Cannabinoid receptor 1) was “Not Active” each time. For the same molecule, the Ki entry in test [2] and in test [3] was “Not Active” each time.

With `CC1=C(/C=C/C(C)=C/C=C/C(C)=C/C(=O)O)C(C)(C)CCC1` [TRETINOIN], at Adenosine receptor A3 (read-out: IC50), the pIC50 was 5.28. Further, the pKi on Adenosine receptor A3 (read-out: Ki) is 5.53. The IC50 result (in test [1]; at Melanocortin receptor 5; in test [2]; in test [3]; against Cannabinoid receptor 1) was “Not Active” in each case. The Ki result in test [2] and in test [3] was “Not Active” throughout.

Regarding `CC[C@@]1(O)C(=O)OCc2c1cc1n(c2=O)Cc2cc3c(CN(C)C)c(O)ccc3nc2-1` [TOPOTECAN], the IC50 result (against Adenosine receptor A3; in test [1]; against Melanocortin receptor 5; in test [2]; in test [3]; against Cannabinoid receptor 1) was “Not Active” in each case. Moreover, the Ki entry in test [2] and in test [3] was “Not Active” in each case.

Consider `O=C(OC[C@H]1O[C@@H](OC(=O)c2cc(O)c(O)c(OC(=O)c3cc(O)c(O)c(O)c3)c2)[C@H](OC(=O)c2cc(O)c(O)c(OC(=O)c3cc(O)c(O)c(O)c3)c2)[C@@H](OC(=O)c2cc(O)c(O)c(OC(=O)c3cc(O)c(O)c(O)c3)c2)[C@@H]1OC(=O)c1cc(O)c(O)c(OC(=O)c2cc(O)c(O)c(O)c2)c1)c1cc(O)c(O)c(OC(=O)c2cc(O)c(O)c(O)c2)c1` [TANNIC ACID], for which the IC50 entry (at Adenosine receptor A3; in test [1]; against Melanocortin receptor 5; in test [2]; in test [3]; at Cannabinoid receptor 1) was “Not Active” throughout. Further, the Ki entry in test [2] and in test [3] was “Not Active” each time.

As to `CC(Cl)(Cl)Cl` [TRICHLOROETHANE], the IC50 result (against Adenosine receptor A3; in test [1]; at Melanocortin receptor 5; in test [2]; in test [3]; against Cannabinoid receptor 1) was “Not Active” in each case. Besides, the Ki result in test [2] and in test [3] was “Not Active” each time.

As for `C=CCc1ccc2c(c1)OCO2` [SAFROLE], the IC50 entry (at Adenosine receptor A3; in test [1]; at Melanocortin receptor 5; in test [2]; in test [3]; at Cannabinoid receptor 1) was “Not Active” in each case. The Ki result in test [2] and in test [3] was “Not Active” throughout.

For `O=C1CC[C@@]2(O)[C@H]3Cc4ccc(O)c5c4[C@@]2(CCN3CC2CC2)[C@H]1O5` [NALTREXONE], the IC50 result (at Adenosine receptor A3; in test [1]; on Melanocortin receptor 5; in test [2]; in test [3]; at Cannabinoid receptor 1) was “Not Active” each time. Further, the Ki entry in test [2] and in test [3] was “Not Active” each time.

On to `CN1C(=O)OC(C)(C)C1=O` [TRIMETHADIONE], for which the IC50 result (against Adenosine receptor A3; in test [1]; against Melanocortin receptor 5; in test [2]; in test [3]; against Cannabinoid receptor 1) was “Not Active” each time. Further, the Ki result in test [2] and in test [3] was “Not Active” throughout.

On to `CC(O)C(=O)O` (configuration not stated) [LACTIC ACID], for which the IC50 entry (against Adenosine receptor A3; in test [1]; on Melanocortin receptor 5; in test [2]; in test [3]; against Cannabinoid receptor 1) was “Not Active” each time. Further, the Ki entry in test [2] and in test [3] was “Not Active” throughout.

Regarding `CS(=O)(=O)c1ccc(C2=C(c3ccccc3)C(=O)OC2)cc1` [ROFECOXIB], the IC50 result (at Adenosine receptor A3; in test [1]; on Melanocortin receptor 5; in test [2]; in test [3]; at Cannabinoid receptor 1) was “Not Active” each time. The Ki entry in test [2] and in test [3] was “Not Active” in each case.

For `C[N+]1(C)[C@@H]2C[C@@H](OC(=O)[C@H](CO)c3ccccc3)C[C@H]1[C@@H]1O[C@@H]12.[Br-]` [METHSCOPOLAMINE BROMIDE], the IC50 result (on Adenosine receptor A3; in test [1]; against Melanocortin receptor 5; in test [2]; in test [3]; at Cannabinoid receptor 1) was “Not Active” throughout. The Ki entry in test [2] and in test [3] was “Not Active” each time.

For `Cc1nnc(NS(=O)(=O)c2ccc(N)cc2)s1` [SULFAMETHIZOLE], the IC50 result (on Adenosine receptor A3; in test [1]; against Melanocortin receptor 5; in test [2]; in test [3]; on Cannabinoid receptor 1) was “Not Active” throughout. Further, the Ki result in test [2] and in test [3] was “Not Active” in each case.

As to `CC(=O)O[C@]1(C(C)=O)CC[C@H]2[C@@H]3C[C@H](C)C4=CC(=O)CC[C@]4(C)[C@H]3CC[C@@]21C` [MEDROXYPROGESTERONE ACETATE], the IC50 result (against Adenosine receptor A3; in test [1]; at Melanocortin receptor 5; in test [2]; in test [3]; against Cannabinoid receptor 1) was “Not Active” in each case. The Ki entry in test [2] and in test [3] was “Not Active” in each case.

With `CC1(C)[C@H](C(=O)O)N2C(=O)C[C@H]2S1(=O)=O` [SULBACTAM], the IC50 entry (on Adenosine receptor A3; in test [1]; against Melanocortin receptor 5; in test [2]; in test [3]; against Cannabinoid receptor 1) was “Not Active” each time. The Ki entry in test [2] and in test [3] was “Not Active” throughout.

For `O=C(O)c1cc(/N=N/c2ccc(S(=O)(=O)Nc3ccccn3)cc2)ccc1O` [SULFASALAZINE], the IC50 result (on Adenosine receptor A3; in test [1]; on Melanocortin receptor 5; in test [2]; in test [3]; against Cannabinoid receptor 1) was “Not Active” throughout. Also, the Ki entry in test [2] and in test [3] was “Not Active” throughout.

As to `CCN(CC)CCNC(=O)c1cc(Cl)c(N)cc1OC` [METOCLOPRAMIDE], the IC50 result (at Adenosine receptor A3; in test [1]; at Melanocortin receptor 5; in test [2]; in test [3]; at Cannabinoid receptor 1) was “Not Active” throughout. In addition, the Ki entry in test [2] and in test [3] was “Not Active” in each case.

`COC(=O)Nc1nc2ccc(C(=O)c3ccccc3)cc2[nH]1` [MEBENDAZOLE]: the IC50 entry (on Adenosine receptor A3; in test [1]; against Melanocortin receptor 5; in test [2]; in test [3]; against Cannabinoid receptor 1) was “Not Active” throughout. Besides, the Ki entry in test [2] and in test [3] was “Not Active” each time.

`Cc1ccnc(NS(=O)(=O)c2ccc(N)cc2)n1` [SULFAMERAZINE]: the IC50 result (against Adenosine receptor A3; in test [1]; at Melanocortin receptor 5; in test [2]; in test [3]; at Cannabinoid receptor 1) was “Not Active” in each case. For the same molecule, the Ki entry in test [2] and in test [3] was “Not Active” throughout.

Consider `Cc1cccc(C)c1NC(=O)C(C)N` (configuration not stated) [TOCAINIDE], for which the IC50 result (at Adenosine receptor A3; in test [1]; against Melanocortin receptor 5; in test [2]; in test [3]; against Cannabinoid receptor 1) was “Not Active” throughout. The Ki entry in test [2] and in test [3] was “Not Active” in each case.

With `CC#C[C@]1(O)CC[C@H]2[C@@H]3CCC4=CC(=O)CCC4=C3[C@@H](c3ccc(N(C)C)cc3)C[C@@]21C` [MIFEPRISTONE], the IC50 entry (at Adenosine receptor A3; in test [1]; against Melanocortin receptor 5; in test [3]; on Cannabinoid receptor 1) was “Not Active” in each case. For the same molecule, the pIC50 in test [2] (read-out: IC50) is 4.80. In addition, the negative-log Ki (pKi) in test [2] (read-out: Ki) was 4.81. In test [3], the Ki result is “Not Active”.

With `C[C@]12CCC(=O)C[C@@H]1CC[C@@H]1[C@@H]2CC[C@]2(C)[C@@H](O)CC[C@@H]12` [STANOLONE], the IC50 entry (against Adenosine receptor A3; in test [1]; against Melanocortin receptor 5; in test [2]; in test [3]; against Cannabinoid receptor 1) was “Not Active” each time. Also, the Ki entry in test [2] and in test [3] was “Not Active” throughout.

For `C1CCN2C[C@@H]3C[C@@H](CN4CCCC[C@@H]34)[C@H]2C1` [SPARTEINE], the IC50 entry (at Adenosine receptor A3; in test [1]; on Melanocortin receptor 5; in test [2]; in test [3]; against Cannabinoid receptor 1) was “Not Active” each time. Moreover, the Ki entry in test [2] and in test [3] was “Not Active” in each case.
